From patent US7655800B2, “Crystalline 1H-imidazo[4,5-b]pyridin-5-amine, 7-[5-[(cyclohexylmethylamino)-methyl]-1H-indol-2-yl]-2-methyl, sulfate (1:1), trihydrate and its pharmaceutical uses” (Eisai R & D Management Co., Ltd., priority 2005, dated 2010)
Where a name gives a salt, the structure may show the parent alone.

Legend:
Format in all cases: physicochemical
[1] = Physical stability of crystalline E6070 under stressed storage (XRD, TG-DTA)
Protocol: Crystalline E6070 was placed on the sample platform of an X-ray powder diffractometer (RINT-2000, Rigaku, Japan) and analyzed under the conditions shown in Table 3.
Thermal Analyses: Using a Rigaku Thermoflex TAS20 TG8101D (Rigaku, Tokyo, Japan) therogravimetric-differential thermal analyses (TG-DTA) were performed under the measurement conditions in Table 9. The temperature axis and the cell constant were calibrated with indium. The solid sample (1-5 mg) was accurately weighed into an open aluminum pan and then heated.
The physical stability of crystalline E6070 was evaluated under the following two conditions: 60° C. for a month and 40° C./75% RH (open) for a month.

[2] = Solubility in water of amorphous versus crystalline E6070; conditions: in words
[3] = Hygroscopicity measurements (controlled-atmosphere microbalance, adsorption/desorption isotherm); conditions: for hygroscopicity: general statement, in words
Protocol: Hygroscopicity Measurements: Samples were exposed to various relative humidity (RH) conditions at 25° C. using an automated controlled-atmosphere microbalance, MB-300W (VTI Corporation, FL, USA). In this system, a sample was suspended in an isothermal chamber at 25° C., and the RH was regulated from 5% to 95% by adjusting the relative flow rates of dry (0% RH) and moist (100% RH) nitrogen. The weight of the sample was measured every 2 min with the microbalance. The weight stability criterion employed for the equilibrium was that the maximum weight change for each measurement was less than 0.2% (w/w).

[4] = 40° C./75% RH (open) for a month

Q: Which results are given for `Cc1nc2nc(N)cc(-c3cc4cc(CN(C)C5CCCCC5)ccc4[nH]3)c2[nH]1` [crystalline E6070, 1H-imidazo[4,5-b]pyridin-5-amine, 7-[5-[(cyclohexylmethylamino)-methyl]-1H-indol-2-yl]-2-methyl, sulfate (1:1), trihydrate]?
A: TG-DTA thermogram after storage compared with initial [1, 4]: same TG-DTA thermogram as the initial; change in XRD pattern after storage [1, 4]: no change; TG-DTA thermogram after storage compared with initial ([1]; 60° C. for a month): same TG-DTA thermogram as the initial; change in XRD pattern after storage ([1]; 60° C. for a month): no change; physical stability in the solid state (conclusion) ([1]; both stressed conditions, one month): physically stable in the solid state; solubility in water [2]: much less soluble in water; moisture uptake or loss on exposure to controlled humidities ([3]; from 0% to 93% RH at 25° C.): not found to take up or lose any moisture; hygroscopicity ([3]; listed as Crystalline E6070, trihydrate): very low hygroscopicity; hygroscopicity ([3]; trihydrate): non-hygroscopic
